Data published in DBAASP.
Values after ≈ are worked out from the molar mass of the structure shown. Each block holds one compound with its values, some of them ahead of it.

Legend:
Experiment in all cases: ≥ marks a high value that may be exact or a test limit, other limits are often not marked, values filed in µg/mL are converted to µM
[1] = system: Corynebacterium glutamicum ATCC 13032
[2] = system: Planococcus citreus NCIMB 1493
[3] = system: Psychrobacter immobilis NCIMB 308
[4] = system: Micrococcus luteus ATCC 4698
Yersinia ruckeri VI-3629 = system: Yersinia ruckeri VI-3629
[5] = system: Vibrio anguillarum VI-F258-3
[6] = system: Vibrio anguillarum NCIMB 2133
[7] = system: Aeromonas salmonicida NCIMB 1102
[8] = system: Staphylococcus aureus ATCC 9144
[9] = system: Escherichia coli ATCC 25922
[10] = system: Yersinia ruckeri NCIMB 2196
[11] = system: Vibrio anguillarum NCIMB 2129
[12] = system: Staphylococcus epidermidis P1111
[13] = system: Staphylococcus aureus P1369
[14] = system: Pseudomonas aeruginosa AB93066
[15] = system: Staphylococcus aureus P1383
Listeria grayi DSM 20601 = system: Listeria grayi DSM 20601
[16] = system: Staphylococcus aureus AB94004
[17] = system: Staphylococcus aureus P1374
[18] = system: Staphylococcus epidermidis P1389
[19] = system: Staphylococcus aureus P1386
Escherichia coli D31 = system: Escherichia coli D31
[20] = system: Micrococcus luteus DSM 20030
[21] = system: Micrococcus luteus AB93113
[22] = system: Bacillus thuringiensis AB92037
[23] = system: Staphylococcus aureus P1381
[24] = system: Listeria fleischmannii DSM 24998
[25] = system: Listeria monocytogenes DSM 20600
[26] = system: Staphylococcus aureus DSM 2569
[27] = system: Bacillus subtilis AB91021
Escherichia coli AB94012 = system: Escherichia coli AB94012
Micrococcus luteus = system: Micrococcus luteus
Streptococcus uberis = system: Streptococcus uberis
[28] = system: Batrachochytrium dendrobatidis
Staphylococcus aureus = system: Staphylococcus aureus
Escherichia coli = system: Escherichia coli
[29] = system: Staphylococcus epidermidis
Leuconostoc lactis = system: Leuconostoc lactis
Listeria innocua = system: Listeria innocua
Bacillus cereus = system: Bacillus cereus
Pasteurella multocida = system: Pasteurella multocida
[30] = system: Klebsiella pneumoniae ATCC 13883
[31] = system: Salmonella enterica subsp. enterica serovar Typhimurium ATCC 700408
[32] = system: Staphylococcus aureus ATCC 25923
[33] = system: Staphylococcus aureus ATCC 43300
[34] = system: Staphylococcus aureus ATCC BAA-39
[35] = system: Listeria monocytogenes ATCC 19115
[36] = system: Salmonella enterica subsp. enterica serovar Typhimurium ATCC 14028

MIC [1]: 10 µM (≈ 23.5 µg/mL)
MIC [2]: 10 µM (≈ 23.5 µg/mL)
MIC [3]: 3.54 µM (≈ 8.33 µg/mL)
MIC [4]: 10 µM (≈ 23.5 µg/mL)
MIC (Yersinia ruckeri VI-3629): 10 µM (≈ 23.5 µg/mL)
MIC [5]: 10 µM (≈ 23.5 µg/mL)
MIC [6]: 10 µM (≈ 23.5 µg/mL)
MIC [7]: 10 µM (≈ 23.5 µg/mL)
MIC [8]: 10 µM (≈ 23.5 µg/mL)
MIC [9]: > 10 µM
MIC [10]: 3.54 µM (≈ 8.33 µg/mL)
MIC [11]: 10 µM (≈ 23.5 µg/mL)
SMILES: CC[C@H](C)[C@H](NC(=O)[C@H](CC(C)C)NC(=O)CNC(=O)[C@@H](NC(=O)[C@@H](NC(=O)[C@H](Cc1cnc[nH]1)NC(=O)[C@H](Cc1cnc[nH]1)NC(=O)[C@H](CC(C)C)NC(=O)[C@@H](N)Cc1ccccc1)[C@@H](C)CC)C(C)C)C(=O)N[C@@H](Cc1cnc[nH]1)C(=O)N[C@@H](Cc1cnc[nH]1)C(=O)NCC(=O)N[C@@H](CC(C)C)C(=O)N[C@@H](CO)C(=O)N[C@@H](CC(C)C)C(=O)N[C@@H](Cc1ccccc1)C(=O)NCC(=O)N[C@@H](CC(=O)O)C(=O)N[C@@H](CCCN=C(N)N)C(=O)N[C@@H](C)C(=O)N[C@@H](CC(=O)O)C(=O)O [FLHHIVGLIHHGLSLFGDRAD]

MIC [12]: 3.96 µM (≈ 6.25 µg/mL)
MIC [13]: 3.96 µM (≈ 6.25 µg/mL)
MIC [14]: ≥ 63.4 µM
MIC [15]: 7.92 µM (≈ 12.5 µg/mL)
MIC (Listeria grayi DSM 20601): 4 µM (≈ 6.31 µg/mL)
MIC [16]: 3.96 µM (≈ 6.25 µg/mL)
MIC [17]: 3.96 µM (≈ 6.25 µg/mL)
MIC [18]: 7.92 µM (≈ 12.5 µg/mL)
MIC [19]: 7.92 µM (≈ 12.5 µg/mL)
MIC (Escherichia coli D31): 15 µM (≈ 23.7 µg/mL)
MIC [20]: 2 µM (≈ 3.15 µg/mL)
MIC [21]: 15.8 µM (≈ 25 µg/mL)
MIC [22]: 31.7 µM (≈ 50 µg/mL)
MIC [23]: 15.8 µM (≈ 25 µg/mL)
MIC [24]: 4 µM (≈ 6.31 µg/mL)
MIC [25]: 8 µM (≈ 12.6 µg/mL)
MIC [26]: 15 µM (≈ 23.7 µg/mL)
MIC [27]: 15.8 µM (≈ 25 µg/mL)
MIC (Escherichia coli AB94012): 31.7 µM (≈ 50 µg/mL)
SMILES: CC[C@H](C)[C@H](NC(=O)[C@H](C)NC(=O)[C@H](CO)NC(=O)[C@H](CCCCN)NC(=O)[C@@H](NC(=O)CNC(=O)[C@H](CCC(=O)O)NC(=O)[C@H](Cc1c[nH]c2ccccc12)NC(=O)[C@H](CC(C)C)NC(=O)[C@H](CCCCN)NC(=O)CNC(=O)[C@H](Cc1c[nH]c2ccccc12)NC(=O)[C@H](Cc1ccccc1)NC(=O)CN)C(C)C)C(N)=O [GFWGKLWEGVKSAI]

MIC (Micrococcus luteus): 5.15 µM (≈ 12 µg/mL)
MIC (Streptococcus uberis): ≥ 42.9 µM
MIC [28]: ≥ 200 µM
MIC (Staphylococcus aureus): > 42.9 µM
MIC (Escherichia coli): 10.7 µM (≈ 25 µg/mL)
MIC [29]: ≥ 42.9 µM
MIC (Leuconostoc lactis): ≥ 42.9 µM
MIC (Listeria innocua): ≥ 42.9 µM
MIC (Bacillus cereus): ≥ 42.9 µM
MIC (Pasteurella multocida): ≥ 42.9 µM
SMILES: CC[C@H](C)[C@H](NC(=O)CNC(=O)[C@H](CCC(=O)O)NC(=O)[C@@H](NC(=O)[C@@H](NC(=O)CNC(=O)[C@H](CO)NC(=O)[C@H](C)NC(=O)[C@H](CC(C)C)NC(=O)[C@H](CC(=O)O)NC(=O)CNC(=O)[C@H](C)NC(=O)[C@H](C)NC(=O)[C@H](CO)NC(=O)[C@H](CCCCN)NC(=O)[C@@H](NC(=O)[C@H](CCCCN)NC(=O)[C@H](CCC(N)=O)NC(=O)[C@H](Cc1c[nH]c2ccccc12)NC(=O)[C@H](CC(C)C)NC(=O)CN)[C@@H](C)CC)[C@@H](C)CC)C(C)C)C(=O)N[C@@H](CCCCN)C(=O)N[C@@H](CO)C(N)=O [GLWQKIKSAAGDLASGIVEGIKS]

MIC [30]: 9.29 µM (≈ 25 µg/mL)
MIC [31]: 9.29 µM (≈ 25 µg/mL)
MIC [32]: 37.1 µM (≈ 100 µg/mL)
MIC [33]: 37.1 µM (≈ 100 µg/mL)
MIC [34]: ≥ 37.1 µM
MIC [9]: 9.29 µM (≈ 25 µg/mL)
MIC [35]: 9.29 µM (≈ 25 µg/mL)
MIC [36]: 9.29 µM (≈ 25 µg/mL)
SMILES: CC(C)C[C@H](NC(=O)[C@H](CCCN=C(N)N)NC(=O)CNC(=O)[C@H](CCC(N)=O)NC(=O)[C@@H]1CCCN1C(=O)[C@H](CC(C)C)NC(=O)[C@H](CCCCN)NC(=O)[C@H](Cc1ccccc1)NC(=O)[C@@H](NC(=O)[C@@H]1CCCN1C(=O)[C@H](CCC(N)=O)NC(=O)[C@H](CO)NC(=O)[C@H](Cc1ccccc1)NC(=O)[C@H](CCCN=C(N)N)NC(=O)[C@@H](N)CCC(N)=O)[C@@H](C)O)C(=O)N[C@H](C(=O)N[C@@H](CC(C)C)C(=O)N[C@@H](CO)C(=O)N[C@@H](CCCN=C(N)N)C(=O)N[C@@H](CCCCN)C(=O)N[C@@H](Cc1ccccc1)C(=O)N[C@@H](CCCN=C(N)N)C(=O)O)[C@@H](C)O [QRFSQPTFKLPQGRLTLSRKFR]
